Source: ChEMBL document CHEMBL3714734, “Modulators of G protein-coupled receptor 88” (2013)

These compounds were tested against T1, G protein-coupled receptor 88 (Homo sapiens, UniProt Q9GZN0) (assay: Modulator activity at GPR88 (unknown origin) incubated for 30 mins by cell based cAMP HTRF assay).
Format: functional

T1 sequence (Q9GZN0 whole entry): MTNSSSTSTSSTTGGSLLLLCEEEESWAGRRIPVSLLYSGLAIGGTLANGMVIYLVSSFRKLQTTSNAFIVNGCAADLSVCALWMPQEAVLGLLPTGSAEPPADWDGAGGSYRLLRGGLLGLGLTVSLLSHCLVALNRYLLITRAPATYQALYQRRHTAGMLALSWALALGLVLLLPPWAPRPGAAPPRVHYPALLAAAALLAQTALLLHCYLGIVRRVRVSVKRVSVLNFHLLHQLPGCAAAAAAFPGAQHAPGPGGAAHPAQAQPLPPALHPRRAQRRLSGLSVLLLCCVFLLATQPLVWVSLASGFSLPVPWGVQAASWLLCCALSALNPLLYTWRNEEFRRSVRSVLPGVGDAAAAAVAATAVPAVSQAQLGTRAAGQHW

Row | SMILES | EC50 [nM]
1 | Cc1ccc(-c2ccc([C@H](CO)NC(=O)[C@H]3C[C@@H]3c3cccs3)cc2)cc1 | ≤ 130
2 | CC[C@H](C)COc1ccc([C@H](CN2CCN(C)CC2)NC(=O)[C@H]2C[C@@H]2c2cccs2)cc1 | ≤ 130
3 | CCC(CC)COc1ccc([C@H](CO)NC(=O)[C@H]2C[C@@H]2c2cccs2)c(C)c1 | ≤ 130
4 | CC[C@H](C)COc1ccc([C@H](CO)NC(=O)[C@H]2C[C@@H]2c2cccs2)c(C)c1 | ≤ 130
5 | CCC(CC)COc1ccc([C@H](CO)NC(=O)[C@H]2C[C@@H]2c2cccs2)cc1 | ≤ 130
6 | CCCC(C)COc1ccc([C@H](CO)NC(=O)[C@H]2C[C@@H]2c2cccs2)c(C)c1 (stereo partly drawn) | ≤ 130
7 | CCCC#Cc1ccc([C@H](CO)NC(=O)[C@H]2C[C@@H]2c2cccs2)c(OC)c1 | ≤ 130

The compounds below were run against T1, G protein-coupled receptor 88 (assay: Modulator activity at GPR88 (unknown origin) expressed in cell membranes incubated for 1 hr by liquid scintillation counting based [35S]GTPgammaS binding assay).
Format: functional

Row | SMILES | EC50 [nM]
8 | CC[C@H](C)COc1ccc([C@H](CN)NC(=O)[C@H]2C[C@@H]2c2cccs2)cc1 | ≤ 130
9 | CCCC(C)COc1ccc([C@H](CN2CCN(C)CC2)NC(=O)[C@H]2C[C@@H]2c2cccs2)cc1 (stereo partly drawn) | ≤ 130
10 | CC[C@H](C)COc1ccc([C@H](CN)NC(=O)[C@H]2C[C@@H]2c2cccs2)c(C)c1 | ≤ 130
11 | CCc1ccc(-c2ccc([C@H](CO)NC(=O)[C@H]3C[C@@H]3c3cccs3)cc2)cc1 | ≤ 130
12 | CCc1ccc(-c2ccc([C@H](CO)NC(=O)[C@H]3C[C@@H]3c3cccs3)c(OC)c2)cc1 | ≤ 130
13 | CC[C@H](NC(=O)[C@H]1C[C@@H]1c1ccccc1)c1ccc(-c2ccc(OC)cc2)cc1 | ≤ 130
